Read-outs that look alike come from different tables or passages of the source.
Assays:
E. coli hinT [1] = target: T1, E. coli hinT (Escherichia coli, UniProt P0ACE7); assay: 31P NMR phosphoramidase assay of purified protein; type: biochemical; settings: for Specific activity: 10 mM substrate, pH 7.2, 22° C.
T1 sequence (P0ACE7 1-119): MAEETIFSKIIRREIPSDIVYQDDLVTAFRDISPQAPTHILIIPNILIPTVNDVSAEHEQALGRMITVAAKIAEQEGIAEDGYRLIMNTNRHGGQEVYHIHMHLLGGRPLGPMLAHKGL
Method: (§1) Phosphoramidase activity in cell lysates was measured by the ^1H-decoupling mode of phosphorus-31 NMR spectroscopy (Varian VAC-300 spectrometer), which can clearly distinguish the substrate, AMP-NH2, and the product, adenosine 5′-monophosphate (AMP). NMR spectrometry is suitable for quantitation by integration of the area under the peak, which is proportional to the amount of nuclei present. The relative ratio of peak areas can be used to calculate the amount of turnover corrected based on a standard curve.
(§2) Cell lysates from E. coli Tuner(DE3)pLacI cells (Novagen) were obtained by treatment with lysozyme (1 mg/ml) and the DNA was precipitated by protamine sulfate followed by centrifugation to remove cell debris. The supernatant was dialyzed extensively against Buffer A (20 mM Tris (pH 7.0); 1 mM EDTA; 1 mM DTT, 0.01 mM PMSF) to remove cellular phosphates and nucleotides. Phosphate free cell lysates (0.75 mg total protein) were incubated with 5 mM AMP-NH2 in 0.5 ml reaction buffer (0.5 mM MgCl2, 20 mM HEPES (pH 7.2)) at 37° C. for intervals of 15 min, 30 min, and 12 h. The reactions were terminated by snap freezing in a dry ice/acetone slush bath and lyophilized for 5 h. The samples were then dissolved in NMR buffer (600 μL, 50 mM EDTA, 20 mM HEPES (pH 7.2), and 1 mM TMP (trimethylphosphate, internal standard)) and the insoluble portion was spun down by centrifugation at 12,500×g for 5 min. A ^31P NMR spectrum was then collected for the supernatant. For the low pH control experiment, 10 mM AMP-NH2 in reaction buffer (500 μL, pH 2.0) was incubated at 37° C. for 12 h and the 31p signal was detected under the same conditions.
(§3) Five recombinant purified proteins were tested with three commercial available compounds (Sigma): AMP-NH2, adenosine 5′-monophosphomorpholidate (AMP-Mor), and guanosine 5′-monophosphomorpholidate (GMP-Mor) (FIG. 1). The compounds (10 mM) were incubated with proteins (2.5-10 μg) in the reaction buffer (500 μL, 0.5 mM MgCl2, 20 mM HEPES (pH 7.2)) at 22° C. for intervals of 36 and 66 min. The reactions were quenched by adding 5 M NaOH (20 μL), followed by snap freezing in a dry ice/acetone slush bath, and lyophilized. The sample preparation for ^31P NMR measurement was as described above for the cell-lysate experiment except that the pH was adjusted by the addition of 12 μL 6 M HCl before NMR spectra were collected.

E. coli hinT-DHFR = target: T2, E. coli hinT-DHFR (Escherichia coli, UniProt P0ABQ4+P0ACE7); assay: 31P NMR phosphoramidase assay of purified protein; type: biochemical; settings: 10 mM substrate, pH 7.2, 22° C.
T2 construct: made in house; host or cells: E. coli Tuner(DE3)pLacI
Method: as §1, §2, §3

Human Hint1-DHFR = target: T3, Human Hint1-DHFR (UniProt P0ABQ4+P49773); assay: 31P NMR phosphoramidase assay of purified protein; type: biochemical; settings: 10 mM substrate, pH 7.2, 22° C.
T3 construct: made in house; host or cells: E. coli (following the procedure for the hinT plasmid)
Method: as §1, §2, §3

Rabbit HINT1 = target: T4, Rabbit HINT1 (Oryctolagus cuniculus, UniProt P80912); assay: 31P NMR phosphoramidase assay of purified protein; type: biochemical; settings: for Specific activity: 10 mM substrate, pH 7.2, 22° C.
T4 construct: made in house; host or cells: E. coli hinT deletion mutant
Method: as §1, §2, §3

hHINT1 [2] = target: T5, hHINT1 (Homo sapiens, UniProt P49773); assay: 31P NMR phosphoramidase assay of purified protein; type: biochemical; settings: for Specific activity: 10 mM substrate, pH 7.2, 22° C.
Method: as §1, §2, §3

hHINT1 [3] = target: T5, hHINT1; assay: Phosphoramidase fluorescence assay; type: biochemical; settings: for Kcat / Km: Table 5
Method: (§4) The fluorescence of tryptophan (ex, 280 nm, em 360 nm) can be quenched when covalently attached to a nucleoside monophosphate, and nucleoside phosphoramidates of D- and L-tryptophan and tryptamine are excellent fluorescent substrates for hHINT1. Typically, after measurement of initial substrate fluorescence, hHINT1 was added to the reaction solution (HEPES buffer, pH 7.2, 25° C.) and the change in fluorescence over 2 min was determined by converting the slope into μM of substrate hydrolyzed per μg of enzyme per min with a standard curve. […] Based on the generation of chimeric polypeptides between the hHINTI and the hinT of E. coli, the preference for D enantiomers by the human HINT1 polypeptide is likely conferred by the C-terminus amino acids (e.g., the C-terminus 5, 6, 5 7, 8, 9, 10, or 11 amino acids) of the hHINT1 enzyme. […] In addition, both D-tryptophan phosphoramidates of cytosine and uridine were substrates. Initial rates were determined 10 during the first 10-20% of the reaction for variable substrate concentrations. The Michaelis-Menten constants, kcat and Km, for selected nucleoside phosphosphoramidates have been determined. (Table 4). As observed in the initial screening assay, for phosphoramidates containing L-tryptophan, hHINT1 has a 7-fold greater preference for AMP phosphoramidates of L-tryptophan than GMP.

E. coli hinT [4] = target: T1, E. coli hinT; assay: Phosphoramidase fluorescence assay; type: biochemical; settings: Table 5
Excerpt: as §4, with “hHINT1.” for “hHINT1. Typically, after measurement of initial substrate fluorescence, hHINT1 was added to the reaction solution (HEPES buffer, pH 7.2, 25° C.) and the change in fluorescence over 2 min was determined by converting the slope into μM of substrate hydrolyzed per μg of enzyme per min with a standard curve.”, “(Table 4).” left out
In addition, the Michaelis-Menten constants, kcat and Km, for selected nucleoside phosphosphoramidates were determined for both human Hint1 and E. coli hinT (Table 5).

hHINT1 [5] = target: T5, hHINT1; settings: literature (J. Biol. Chem. 2004, 279, 18711; 2002, 277, 10852); cited from earlier work
hHINT1 [6] = target: T5, hHINT1; assay: Catalytic activity (velocity) of cloned, purified phosphoramidase with AMPNH2; type: biochemical
Excerpt: The enzyme responsible for hydrolysis of AZT amino acid phosphoramidates was cloned and characterized. After construction of a cDNA library from peripheral blood mononuclear cells (PBMCs) in T7Select10-3b phage, the phage display technique was employed to isolate the enzyme by affinity chromatography. After three rounds of phage selection and ampilification with an affinity column constructed from the L-tryptophan carbamate, DNA from ten selected plaques was amplified by PCR and sequenced. […] Hint1 is a member of the HIT protein superfamily, which consists of a recently identified adenosine 5′-monophosphoramide hydrolases from rabbit and yeast.
Velocity of the enzymes was determined at pH 7.2 at room temperature in the presence of 10 mM AMPNH2.

[7] = FIG. 5 substrate preference screen

Compound	Kcat (hHINT1 [3])	Km (hHINT1 [3])	Kcat (E. coli hinT [4])	Km (E. coli hinT [4])	also measured
Nc1ncnc2c1ncn2[C@@H]1O[C@H](COP(=O)(O)N2CCOCC2)[C@@H](O)[C@H]1O [AMP-Mor, adenosine 5′-monophosphomorpholidate]	–	–	–	–	Specific activity (E. coli hinT [1]): 360 ± 1 nmol nmol^−1 min^−1; Specific activity (E. coli hinT-DHFR): 411 ± 4 nmol nmol^−1 min^−1; Specific activity (Human Hint1-DHFR): 43.4 ± 4.0 nmol nmol^−1 min^−1; Specific activity (Rabbit HINT1): 26.6 ± 0.6 nmol nmol^−1 min^−1; Specific activity (hHINT1 [2]): 45.0 ± 0 nmol nmol^−1 min^−1
Nc1ncnc2c1ncn2[C@@H]1O[C@H](COP(=O)(O)NCCc2c[nH]c3ccccc23)[C@@H](O)[C@H]1O [AMP-Tryptamine]	2.05 ± 0.27 s⁻¹	0.25 ± 0.05 µM	4.07 ± 0.11 s⁻¹	5.03 ± 0.21 µM	–
Nc1ncnc2c1ncn2[C@@H]1O[C@H](COP(=O)(O)NCCCC[C@H](N)C(=O)O)[C@@H](O)[C@H]1O [AMP-lysine]	–	–	–	–	Kcat (hHINT1 [5]): 0.234 ± 0.011 s⁻¹; Km (hHINT1 [5]): 0.472 ± 0.057 µM
Nc1ncnc2c1ncn2[C@@H]1O[C@H](COP(=O)(O)NCCc2c[nH]c3ccccc23)[C@@H](O)[C@@H]1O [Ara-AMP-Tryptamine]	0.85 ± 0.1 s⁻¹	0.79 ± 0.11 µM	0.95 ± 0.17 s⁻¹	34.6 ± 5.64 µM	–
Nc1nc2c(ncn2C2OC(COP(=O)(O)NC(Cc3c[nH]c4ccccc34)C(=O)O)C(O)C2O)c(=O)[nH]1 [GMP D-tryptophan phosphoramidate, guanosine monophosphate (GMP) D-tryptophan phosphoramidate]	–	–	–	–	Activity relative to 7-benzyl guanosine monophosphate (7-Bn GMP) (hHINT1 [3]; [7]): approximately 7 fold; Activity relative to GMP L-tryptophan (hHINT1 [3]; [7]): nearly identical
COC(=O)[C@@H](Cc1c[nH]c2ccccc12)NP(=O)(O)OC[C@H]1O[C@@H](n2cnc3c(=O)[nH]c(N)nc32)[C@H](O)[C@@H]1O [GMP-D-TrpCOOMe]	0.29 ± 0.02 s⁻¹	3.27 ± 0.58 µM	1.75 ± 0.05 s⁻¹	21.3 ± 1.21 µM	–
Nc1nc2c(ncn2[C@@H]2O[C@H](COP(=O)(O)N3CCOCC3)[C@@H](O)[C@H]2O)c(=O)[nH]1 [GMP-Mor, guanosine 5′-monophosphomorpholidate]	–	–	–	–	Preference for GMP-Mor over AMP-Mor (E. coli hinT [1]): 2 fold; Specific activity (E. coli hinT [1]): 669 ± 1 nmol nmol^−1 min^−1; Specific activity (E. coli hinT-DHFR): 675 ± 17 nmol nmol^−1 min^−1; Specific activity (Human Hint1-DHFR): 87.2 ± 11.8 nmol nmol^−1 min^−1; Preference for GMP-Mor over AMP-Mor (Rabbit HINT1): 2 fold; Specific activity (Rabbit HINT1): 48.6 ± 0.4 nmol nmol^−1 min^−1; Preference for GMP-Mor over AMP-Mor (hHINT1 [2]): 2 fold; Specific activity (hHINT1 [2]): 78.7 ± 1.3 nmol nmol^−1 min^−1
Nc1nc2c(ncn2[C@@H]2O[C@H](COP(=O)(O)NCCc3c[nH]c4ccccc34)[C@@H](O)[C@H]2O)c(=O)[nH]1 [GMP-Tryptamine]	2.09 ± 0.16 s⁻¹	0.243 ± 0.03 µM	3.45 ± 0.3 s⁻¹	5.34 ± 0.69 µM	–
O=c1[nH]cnc2c1ncn2[C@@H]1O[C@H](COP(=O)(O)NCCc2c[nH]c3ccccc23)[C@@H](O)[C@H]1O [IMP-Tryptamine]	2.53 ± 0.09 s⁻¹	0.71 ± 0.03 µM	3.89 ± 0.18 s⁻¹	13.7 ± 0.67 µM	–
Cc1cn([C@H]2C[C@H](O)[C@@H](COP(=O)(O)NCCc3c[nH]c4ccccc34)O2)c(=O)[nH]c1=O [TMP-Tryptamine]	0.044 ± 0.01 s⁻¹	26.1 ± 2.78 µM	0.014 ± 0.001 s⁻¹	35.9 ± 2.27 µM	–
O=c1ccn([C@@H]2O[C@H](COP(=O)(O)NCCc3c[nH]c4ccccc34)[C@@H](O)[C@H]2O)c(=O)[nH]1 [UMP-Tryptamine]	1.85 ± 0.29 s⁻¹	1.42 ± 0.25 µM	1.63 ± 0.22 s⁻¹	25.1 ± 3.56 µM	–
AZT tryptophan phosphoramidate	–	–	–	–	Hydrolysis by over-expressed, purified human Hint1 (hHINT1 [6]): to a lesser extent

— patent publication US20060014193A1, “Nucleoside phosphoramidates and nucleoside phosphoramidases” (priority 2004, published 2006)
